# Measured values published in PubChem BioAssay (NCI).
#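 At the GI50, growth is halved. TGI: concentration producing complete growth inhibition.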
# Key:
# Assay in all cases: inhibition of tumour cell growth, NCI panel, 384-well format
# OVCAR-5 ovarian = tested on: OVCAR-5 ovarian
# MDA-MB-468 breast = tested on: MDA-MB-468 breast
# RPMI-8226 leukemia = tested on: RPMI-8226 leukemia
# MALME-3M melanoma = tested on: MALME-3M melanoma
# SK-MEL-5 melanoma = tested on: SK-MEL-5 melanoma
# IGROV1 ovarian = tested on: IGROV1 ovarian
# UACC-257 melanoma = tested on: UACC-257 melanoma
# RXF 393 renal = tested on: RXF 393 renal
# SF-539 CNS = tested on: SF-539 CNS
# HCT-116 colon = tested on: HCT-116 colon
# OVCAR-4 ovarian = tested on: OVCAR-4 ovarian
# ACHN renal = tested on: ACHN renal
# CAKI-1 renal = tested on: CAKI-1 renal
# NCI-H522 lung = tested on: NCI-H522 lung
# A549 NSCLC = tested on: A549 NSCLC
# NCI-H226 lung = tested on: NCI-H226 lung
# OVCAR-3 ovarian = tested on: OVCAR-3 ovarian
# MCF7 breast = tested on: MCF7 breast
# NCI-H460 NSCLC = tested on: NCI-H460 NSCLC
# UACC-62 melanoma = tested on: UACC-62 melanoma
# NCI-H322M lung = tested on: NCI-H322M lung
# SF-268 CNS = tested on: SF-268 CNS
# U251 glioblastoma = tested on: U251 glioblastoma
# BT-549 breast = tested on: BT-549 breast
# HOP-62 NSCLC = tested on: HOP-62 NSCLC
# M14 melanoma = tested on: M14 melanoma
# TK-10 renal = tested on: TK-10 renal
# HS 578T breast = tested on: HS 578T breast
# LOX IMVI melanoma = tested on: LOX IMVI melanoma
# T-47D breast = tested on: T-47D breast
# SF-295 CNS = tested on: SF-295 CNS
# EKVX NSCLC = tested on: EKVX NSCLC
# A498 renal = tested on: A498 renal
# MOLT-4 leukemia = tested on: MOLT-4 leukemia
# SR leukemia = tested on: SR leukemia
# KM12 colon = tested on: KM12 colon
# CCRF-CEM leukemia = tested on: CCRF-CEM leukemia
# OVCAR-8 ovarian = tested on: OVCAR-8 ovarian
# DU-145 prostate = tested on: DU-145 prostate
# SK-OV-3 ovarian = tested on: SK-OV-3 ovarian
# MDA-MB-231 breast = tested on: MDA-MB-231 breast
# SNB-19 CNS = tested on: SNB-19 CNS
# COLO 205 colon = tested on: COLO 205 colon
# HOP-92 NSCLC = tested on: HOP-92 NSCLC
# SN12C renal = tested on: SN12C renal
# 786-0 renal = tested on: 786-0 renal
# SK-MEL-28 melanoma = tested on: SK-MEL-28 melanoma
# HCC-2998 colon = tested on: HCC-2998 colon
# NCI-H23 lung = tested on: NCI-H23 lung
# SNB-75 CNS = tested on: SNB-75 CNS
# SW-620 colon = tested on: SW-620 colon
# UO-31 renal = tested on: UO-31 renal
# MDA-MB-435 melanoma = tested on: MDA-MB-435 melanoma
# HCT-15 colon = tested on: HCT-15 colon
# HL-60(TB) leukemia = tested on: HL-60(TB) leukemia
# NCI/ADR-RES ovarian = tested on: NCI/ADR-RES ovarian
# PC-3 prostate = tested on: PC-3 prostate
structure (smiles),measurement,setting,value
CNC(=O)c1cc(Oc2ccc(NC(=O)Nc3ccc(Cl)c(C(F)(F)F)c3)c(F)c2)ccn1,GI50,OVCAR-5 ovarian,5.79 µM
same,TGI,OVCAR-5 ovarian,28.5 µM
same,GI50,MDA-MB-468 breast,1.72 µM
same,TGI,MDA-MB-468 breast,4.31 µM
same,GI50,RPMI-8226 leukemia,1.73 µM
same,TGI,RPMI-8226 leukemia,3.3 µM
same,GI50,MALME-3M melanoma,0.719 µM
same,TGI,MALME-3M melanoma,3.09 µM
same,GI50,SK-MEL-5 melanoma,1.6 µM
same,TGI,SK-MEL-5 melanoma,3.86 µM
same,GI50,IGROV1 ovarian,2.8 µM
same,TGI,IGROV1 ovarian,14.5 µM
same,GI50,UACC-257 melanoma,2.45 µM
same,TGI,UACC-257 melanoma,9.07 µM
same,GI50,RXF 393 renal,2.49 µM
same,TGI,RXF 393 renal,4.98 µM
same,GI50,SF-539 CNS,2.13 µM
same,TGI,SF-539 CNS,6.63 µM
same,GI50,HCT-116 colon,1.77 µM
same,TGI,HCT-116 colon,8.6 µM
same,GI50,OVCAR-4 ovarian,2.55 µM
same,TGI,OVCAR-4 ovarian,7.25 µM
same,GI50,ACHN renal,3.38 µM
same,TGI,ACHN renal,25.1 µM
same,GI50,CAKI-1 renal,2.67 µM
same,TGI,CAKI-1 renal,7.59 µM
same,GI50,NCI-H522 lung,2.83 µM
same,TGI,NCI-H522 lung,> 24.7 µM
same,GI50,A549 NSCLC,2.66 µM
same,TGI,A549 NSCLC,8.57 µM
same,GI50,NCI-H226 lung,1.93 µM
same,GI50,OVCAR-3 ovarian,4.55 µM
same,TGI,OVCAR-3 ovarian,12.6 µM
same,GI50,MCF7 breast,1.93 µM
same,TGI,MCF7 breast,5.47 µM
same,GI50,NCI-H460 NSCLC,3.08 µM
same,TGI,NCI-H460 NSCLC,10.7 µM
same,GI50,UACC-62 melanoma,2.09 µM
same,TGI,UACC-62 melanoma,7.66 µM
same,GI50,NCI-H322M lung,2.66 µM
same,TGI,NCI-H322M lung,6.21 µM
same,GI50,SF-268 CNS,4.28 µM
same,TGI,SF-268 CNS,14.4 µM
same,GI50,U251 glioblastoma,3.06 µM
same,TGI,U251 glioblastoma,11 µM
same,GI50,BT-549 breast,3.2 µM
same,TGI,BT-549 breast,7.34 µM
same,GI50,HOP-62 NSCLC,2.98 µM
same,TGI,HOP-62 NSCLC,10.1 µM
same,GI50,M14 melanoma,1.69 µM
same,TGI,M14 melanoma,8.56 µM
same,GI50,TK-10 renal,3.49 µM
same,TGI,TK-10 renal,76.2 µM
same,GI50,HS 578T breast,2.33 µM
same,TGI,HS 578T breast,7.35 µM
same,GI50,LOX IMVI melanoma,1.39 µM
same,TGI,LOX IMVI melanoma,3.99 µM
same,GI50,T-47D breast,1.56 µM
same,TGI,T-47D breast,6.73 µM
same,GI50,SF-295 CNS,2.13 µM
same,TGI,SF-295 CNS,6.02 µM
same,GI50,EKVX NSCLC,2.12 µM
same,TGI,EKVX NSCLC,5.43 µM
same,GI50,A498 renal,3.66 µM
same,TGI,A498 renal,21.7 µM
same,GI50,MOLT-4 leukemia,1.7 µM
same,TGI,MOLT-4 leukemia,3.2 µM
same,GI50,SR leukemia,1.47 µM
same,TGI,SR leukemia,2.82 µM
same,GI50,KM12 colon,3.03 µM
same,TGI,KM12 colon,15.5 µM
same,GI50,CCRF-CEM leukemia,3.4 µM
same,TGI,CCRF-CEM leukemia,8.05 µM
same,GI50,OVCAR-8 ovarian,2.17 µM
same,TGI,OVCAR-8 ovarian,5.79 µM
same,GI50,DU-145 prostate,3.02 µM
same,TGI,DU-145 prostate,9.32 µM
same,GI50,SK-OV-3 ovarian,3.2 µM
same,TGI,SK-OV-3 ovarian,9.43 µM
same,GI50,MDA-MB-231 breast,1.35 µM
same,TGI,MDA-MB-231 breast,3.47 µM
same,GI50,SNB-19 CNS,4.65 µM
same,TGI,SNB-19 CNS,> 88.5 µM
same,GI50,COLO 205 colon,1.64 µM
same,TGI,COLO 205 colon,4.7 µM
same,GI50,HOP-92 NSCLC,2.27 µM
same,TGI,HOP-92 NSCLC,5.43 µM
same,GI50,SN12C renal,3.16 µM
same,TGI,SN12C renal,11 µM
same,GI50,786-0 renal,2.47 µM
same,TGI,786-0 renal,7.76 µM
same,GI50,SK-MEL-28 melanoma,1.39 µM
same,TGI,SK-MEL-28 melanoma,8.75 µM
same,GI50,HCC-2998 colon,2.04 µM
same,TGI,HCC-2998 colon,5.98 µM
same,GI50,NCI-H23 lung,1.34 µM
same,TGI,NCI-H23 lung,3.43 µM
same,GI50,SNB-75 CNS,5.14 µM
same,TGI,SNB-75 CNS,12.9 µM
same,GI50,SW-620 colon,2.97 µM
same,TGI,SW-620 colon,13.9 µM
same,GI50,UO-31 renal,2.02 µM
same,TGI,UO-31 renal,5.44 µM
same,GI50,MDA-MB-435 melanoma,3.14 µM
same,TGI,MDA-MB-435 melanoma,14.6 µM
same,GI50,HCT-15 colon,2.52 µM
same,TGI,HCT-15 colon,9.38 µM
same,GI50,HL-60(TB) leukemia,0.734 µM
same,TGI,HL-60(TB) leukemia,1.97 µM
same,GI50,NCI/ADR-RES ovarian,2.06 µM
same,TGI,NCI/ADR-RES ovarian,5.1 µM
same,GI50,PC-3 prostate,3.79 µM
same,TGI,PC-3 prostate,16.3 µM
